Source: BindingDB's records for PubMed 9686407 (Sri International, 1998)
pKi: −log10 of the molar value. Non-standard residues stand in square brackets, D forms with d. Residues, ends and D or L forms follow the SMILES beside them. NMeF = CN[C@@H](Cc1ccccc1)C(=O)O

Key:
[1] = target: Kappa-type opioid receptor (Cavia porcellus, UniProt P41144)
Mu-type opioid receptor = Mu-type opioid receptor (Cavia porcellus, UniProt P97266)
[2] = target: 5-hydroxytryptamine receptor 2A (Rattus norvegicus, UniProt P14842)
D(1A) dopamine receptor = D(1A) dopamine receptor (Homo sapiens, UniProt P21728)
[3] = target: T1, 5-hydroxytryptamine receptor 1A (Homo sapiens, UniProt P08908)
T1 sequence (P08908 whole entry): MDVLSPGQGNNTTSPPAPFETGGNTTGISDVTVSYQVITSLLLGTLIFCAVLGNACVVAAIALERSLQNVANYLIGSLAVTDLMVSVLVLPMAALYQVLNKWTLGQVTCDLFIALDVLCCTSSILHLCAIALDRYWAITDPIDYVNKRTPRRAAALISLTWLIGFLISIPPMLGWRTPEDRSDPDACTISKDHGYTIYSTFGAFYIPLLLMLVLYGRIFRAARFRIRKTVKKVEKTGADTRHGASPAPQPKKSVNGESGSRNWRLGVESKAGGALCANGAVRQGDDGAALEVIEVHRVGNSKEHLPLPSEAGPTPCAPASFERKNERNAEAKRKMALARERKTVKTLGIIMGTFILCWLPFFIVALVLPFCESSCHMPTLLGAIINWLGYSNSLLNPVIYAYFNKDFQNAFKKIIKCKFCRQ

[4] = target: T2, 5-hydroxytryptamine receptor 3A (Mus musculus, UniProt P23979)
T2 sequence (P23979 whole entry): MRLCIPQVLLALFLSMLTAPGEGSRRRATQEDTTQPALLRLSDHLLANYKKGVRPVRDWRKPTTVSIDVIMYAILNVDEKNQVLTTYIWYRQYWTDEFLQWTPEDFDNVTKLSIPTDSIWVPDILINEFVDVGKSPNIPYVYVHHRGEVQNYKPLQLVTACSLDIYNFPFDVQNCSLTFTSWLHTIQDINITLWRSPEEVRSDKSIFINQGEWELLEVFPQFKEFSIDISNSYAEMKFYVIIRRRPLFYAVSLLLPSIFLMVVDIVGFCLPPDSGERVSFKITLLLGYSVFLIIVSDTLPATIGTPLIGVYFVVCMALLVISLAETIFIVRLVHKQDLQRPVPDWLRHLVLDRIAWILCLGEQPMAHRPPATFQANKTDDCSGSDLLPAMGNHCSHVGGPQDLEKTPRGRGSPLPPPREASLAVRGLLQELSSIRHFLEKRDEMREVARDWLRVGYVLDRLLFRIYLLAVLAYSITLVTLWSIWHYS

[5] = target: T3, 5-hydroxytryptamine receptor 2C (Rattus norvegicus, UniProt P08909)
T3 sequence (P08909 whole entry): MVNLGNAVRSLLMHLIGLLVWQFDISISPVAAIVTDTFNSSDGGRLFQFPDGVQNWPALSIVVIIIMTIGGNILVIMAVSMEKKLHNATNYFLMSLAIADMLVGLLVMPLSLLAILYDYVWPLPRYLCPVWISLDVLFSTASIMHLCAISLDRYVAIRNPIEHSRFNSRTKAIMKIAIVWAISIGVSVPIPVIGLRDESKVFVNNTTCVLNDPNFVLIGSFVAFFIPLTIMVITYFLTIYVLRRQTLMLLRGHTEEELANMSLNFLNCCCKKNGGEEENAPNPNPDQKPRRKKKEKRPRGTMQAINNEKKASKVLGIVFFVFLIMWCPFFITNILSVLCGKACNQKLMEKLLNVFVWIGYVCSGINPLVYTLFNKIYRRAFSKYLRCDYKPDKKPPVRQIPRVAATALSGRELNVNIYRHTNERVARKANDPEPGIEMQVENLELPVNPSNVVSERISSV

Chain of D(1A) dopamine receptor (P21728 whole entry): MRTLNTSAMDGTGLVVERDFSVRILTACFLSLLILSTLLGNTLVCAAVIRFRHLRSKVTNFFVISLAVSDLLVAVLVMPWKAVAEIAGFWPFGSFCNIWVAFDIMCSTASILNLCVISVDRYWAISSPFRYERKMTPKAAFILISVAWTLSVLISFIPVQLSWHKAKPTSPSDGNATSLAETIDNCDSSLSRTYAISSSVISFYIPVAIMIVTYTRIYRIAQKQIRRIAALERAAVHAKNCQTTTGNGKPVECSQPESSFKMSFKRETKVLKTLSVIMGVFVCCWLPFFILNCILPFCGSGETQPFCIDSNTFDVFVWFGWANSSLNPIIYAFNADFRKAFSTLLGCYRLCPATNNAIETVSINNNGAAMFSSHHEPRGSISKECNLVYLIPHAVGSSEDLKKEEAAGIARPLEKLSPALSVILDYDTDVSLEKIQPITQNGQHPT
Chain of 5-hydroxytryptamine receptor 2A (P14842 whole entry): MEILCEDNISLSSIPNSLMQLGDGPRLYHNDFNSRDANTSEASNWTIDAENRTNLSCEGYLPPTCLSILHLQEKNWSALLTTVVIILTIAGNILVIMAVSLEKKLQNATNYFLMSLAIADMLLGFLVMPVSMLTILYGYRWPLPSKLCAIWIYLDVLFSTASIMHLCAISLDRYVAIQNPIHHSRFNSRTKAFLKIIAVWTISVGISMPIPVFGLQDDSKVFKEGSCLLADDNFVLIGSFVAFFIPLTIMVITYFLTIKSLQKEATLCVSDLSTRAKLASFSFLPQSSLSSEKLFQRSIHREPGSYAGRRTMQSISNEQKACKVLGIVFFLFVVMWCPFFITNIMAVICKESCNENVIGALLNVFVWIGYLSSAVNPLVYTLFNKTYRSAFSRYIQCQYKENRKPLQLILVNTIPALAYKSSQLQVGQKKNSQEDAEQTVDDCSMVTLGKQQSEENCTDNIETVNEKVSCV
Chain of Kappa-type opioid receptor (P41144 whole entry): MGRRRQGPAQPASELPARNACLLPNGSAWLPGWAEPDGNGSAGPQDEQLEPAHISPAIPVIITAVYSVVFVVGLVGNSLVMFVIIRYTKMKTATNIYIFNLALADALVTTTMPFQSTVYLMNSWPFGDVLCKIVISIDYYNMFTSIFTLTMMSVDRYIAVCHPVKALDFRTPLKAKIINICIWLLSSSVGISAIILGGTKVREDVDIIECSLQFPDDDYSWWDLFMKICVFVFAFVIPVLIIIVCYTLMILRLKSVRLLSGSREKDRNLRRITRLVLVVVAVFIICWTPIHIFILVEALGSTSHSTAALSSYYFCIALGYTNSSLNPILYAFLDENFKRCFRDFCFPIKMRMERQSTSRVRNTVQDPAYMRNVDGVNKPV
Chain of Mu-type opioid receptor (P97266 whole entry): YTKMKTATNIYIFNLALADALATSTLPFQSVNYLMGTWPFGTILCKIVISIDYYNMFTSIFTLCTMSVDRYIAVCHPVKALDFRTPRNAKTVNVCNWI

Row | Compound | pKi [1] | pKi (Mu-type opioid receptor) | pKi [2] | pKi (D(1A) dopamine receptor) | pKi [3] | pKi [4] | pKi [5]
1 | CN(C(=O)[C@@H]1CCCN1C(=O)[C@@H](N)Cc1ccc(O)cc1)[C@@H](Cc1ccccc1)C(=O)N1CCC[C@@H]1C(N)=O (H-YP[NMeF][dP]-NH2) | < 5.00 | 8.09 |  |  |  |  | 
2 | Oc1ccc2c3c1O[C@H]1c4[nH]c5c(c4C[C@@]4(O)[C@@H](C2)N(CC2CC2)CC[C@]314)C[C@@]1(O)[C@H]2Cc3ccc(O)c4c3[C@@]1(CCN2CC1CC1)[C@H]5O4 [C18130] |  | 8.08 |  |  |  |  | 
3 | Oc1ccc2c3c1O[C@H]1c4oc5ccccc5c4C[C@@]4(O)[C@@H](C2)N(CC2CC2)CC[C@]314 [CAS_111555-58-9] | 7.99 | 8.19 |  |  |  |  | 
4 | C=CCN1CCC23c4c5ccc(O)c4O[C@@H]2C(=NNC(=O)c2ccccc2)CCC3(O)C1C5 (some centres not stated) | 9.40 | 9.70 |  |  |  |  | 
5 | CN1CC[C@]23CCCC[C@H]2[C@H]1Cc1ccc(O)cc13 [CAS_5985-38-6] | 8.47 | 9.52 |  |  |  |  | 
6 | Oc1ccc2c3c1OC1c4[nH]c5ccccc5c4CC4(O)[C@H](C2)N(CC2CC2)CCC314 (some centres not stated) [NALTRINDOLE] | 8.11 | 9.70 |  |  |  |  | 
7 | COC(=O)[C@H]1[C@@H](OC(=O)c2ccccc2)C[C@@H]2CC[C@H]1N2C [Cocaine (-)] |  |  | < 5.00 | < 5.00 | < 5.00 | < 5.00 | < 5.00
8 | Oc1ccc2c3c1OC1C(O)C=CC4C(C2)NCCC341 (configuration not stated) [NORMORPHINE] | 7.19 | 8.41 |  |  |  |  | 
9 | CC(C)=CCN1CC[C@@]2(C)c3cc(O)ccc3C[C@@H]1[C@@H]2C [Talwin] | 8.36 | 8.24 |  |  |  |  | 
10 | C[C@@H](O)[C@H](NC(=O)[C@H]1NC(=O)[C@H]([C@@H](C)O)NC(=O)[C@H](CCCN=C(N)N)NC(=O)[C@@H](Cc2c[nH]c3ccccc23)NC(=O)[C@H](Cc2ccc(O)cc2)NC(=O)[C@@H](NC(=O)[C@H](N)Cc2ccccc2)CSSC1(C)C)C(N)=O [CTAP-NH2] | 5.98 | 9.30 |  |  |  |  | 
11 | CC[C@H](C)[C@H](NC(=O)[C@H](CCCNC(=N)N)NC(=O)[C@H](CCCNC(=N)N)NC(=O)[C@H](CC(C)C)NC(=O)[C@H](Cc1ccccc1)NC(=O)CNC(=O)CNC(=O)[C@@H](N)Cc1ccc(O)cc1)C(=O)N[C@@H](CCCNC(=N)N)C(=O)N1CCC[C@H]1C(=O)N[C@@H](CCCCN)C(=O)N[C@@H](CC(C)C)C(=O)N[C@@H](CCCCN)C(=O)O [Dynorphin A (1-13)] |  | 8.48 |  |  |  |  | 
12 | CCCN1CCCC(c2cccc(O)c2)C1 (configuration not stated) [CAS_85976-54-1] |  |  | 5.22 | < 5.00 | 5.38 | < 5.00 | < 5.00
13 | CC(C)C[C@H](NC(=O)[C@H](Cc1ccccc1)NC(=O)CNC(=O)[C@@H](CO)NC(=O)[C@@H](N)Cc1ccc(O)cc1)C(=O)N[C@H](C(=O)O)[C@@H](C)O [DSLET-OH] | < 5.00 | 7.69 |  |  |  |  | 
14 | CC(C)C[C@H]1C(=O)N2CCC[C@H]2[C@]2(O)O[C@](NC(=O)[C@@H]3C=C4c5cccc6[nH]c(Br)c(c56)C[C@H]4N(C)C3)(C(C)C)C(=O)N12 [Bromocriptine+ (GTP+)] |  |  | 6.93 | 5.68 | 7.60 | < 5.00 | 5.33
15 | CC[C@@]12CCN(CC3CC3)C(C(=O)c3ccc(O)cc31)[C@@H]2C [EKC] |  | 9.40 |  |  |  |  | 
16 | CC[C@@H]1CC2C[C@@H]3c4[nH]c5ccc(OC)cc5c4CCN(C2)C13 [IBOGAINE] |  |  | < 5.00 | < 5.00 | < 5.00 | < 5.00 | < 5.00
17 | C=CCN1CC[C@]23c4c5ccc(O)c4O[C@H]2[C@@H](O)C=CC3[C@H]1C5 (some centres not stated) [NALORPHINE - HCI] | 8.77 | 8.72 |  |  |  |  | 
18 | CN1CC[C@]23c4c5ccc(O)c4O[C@H]2[C@@H](O)CCC3[C@H]1C5 (some centres not stated) [DIHYDROMORPHINE] |  | 9.10 |  |  |  |  | 

Row | Compound | pKi [1] | pKi (Mu-type opioid receptor) | pKi [2] | pKi (D(1A) dopamine receptor) | pKi [3] | pKi [4] | pKi [5]
19 | CC(C)[C@H](NC(=O)[C@H](CCC(=O)O)NC(=O)[C@H](Cc1ccccc1)NC(=O)[C@@H](C)NC(=O)[C@@H](N)Cc1ccc(O)cc1)C(=O)N[C@H](C(=O)NCC(N)=O)C(C)C [Tyr-D-Ala-Phe-Glu-Val-Val-GlyNH2] | < 5.00 |  |  |  |  |  | 
20 | CC[C@H](C)[C@H](NC(=O)[C@H](CCCN=C(N)N)NC(=O)[C@H](CCCN=C(N)N)NC(=O)[C@H](CC(C)C)NC(=O)[C@H](Cc1ccccc1)NC(=O)CNC(=O)CNC(=O)[C@@H](N)Cc1ccc(O)cc1)C(=O)O | 8.85 |  |  |  |  |  | 
21 | C#CCN(C)[C@H](C)Cc1ccccc1 [US8633208, Deprenyl] |  |  | 5.25 | < 5.00 | < 5.00 | < 5.00 | < 5.00
22 | CN1CC(C(=O)N[C@]2(C)O[C@@]3(O)C4CCCN4C(=O)[C@H](Cc4ccccc4)N3C2=O)CC2c3cccc4[nH]cc(c34)CC21 (stereo partly drawn) [7-Methyl-4,6,6a,7,8,9,10,10a-octahydro-indolo[4,3-fg]quinoline-9-carboxylic acid ((2R,5S,10bS)-5-benzyl-10b-hydroxy-2-methyl-3,6-dioxo-octahydro-oxazolo[3,2-a]pyrrolo[2,1-c]pyrazin-2-yl)-amide] |  |  | 7.42 | 5.56 | 8.82 | < 5.00 | 6.53
23 | Fc1ccc(C(OCCN2CCN(CCCc3ccccc3)CC2)c2ccc(F)cc2)cc1 [Vanoxerine] |  |  | 6.79 | < 5.00 | 5.33 | < 5.00 | < 5.00
24 | CC(C)C[C@@H](NC(=O)[C@H](Cc1ccccc1)NC(=O)CNC(=O)[C@@H](C)NC(=O)[C@@H](N)Cc1ccc(O)cc1)C(=O)O [[D-Ala2-D-Leu5]enkephalin] | < 5.00 | 8.49 |  |  |  |  | 
25 | C=C1CCC2(O)C3Cc4ccc(O)c5c4C2(CCN3CC2CC2)C1O5 (configuration not stated) [NSC_119501] | 9.52 | 9.52 |  |  |  |  | 
26 | H-YGGFMTSEKSQTPLVTLFKNAIVKNAHKKGQ-OH [Beta-Endorphin] | 7.36 | 8.64 |  |  |  |  | 
27 | COc1ccc2c3c1OC1C(O)C=CC4C(C2)N(C)CCC341 (configuration not stated) [NSC_223652] | < 5.00 | 6.82 |  |  |  |  | 
28 | COC(=O)[C@@H](c1ccccc1)[C@@H]1CCCCN1 |  |  | < 5.00 | < 5.00 | < 5.00 | < 5.00 | < 5.00
29 | CN[C@@H](C)Cc1ccccc1 [METHAMPHETAMINE (+)] |  |  | < 5.00 | < 5.00 | < 5.00 | < 5.00 | < 5.00
30 | COC(=O)[C@H]1[C@H]2C[C@@H]3c4[nH]c5cc(OC)ccc5c4CCN3C[C@H]2C[C@@H](OC(=O)c2cc(OC)c(OC)c(OC)c2)[C@@H]1OC [Apoplon] |  |  | 5.51 | 5.41 | 5.74 | < 5.00 | 5.51
31 | C[C@@H]1[C@@H]2Cc3ccc(O)cc3[C@@]1(C)CCN2CC1CC1 [(SSS)-12-Cyclopropylmethyl-13-methyl-12-aza-tricyclo[9.1.1.0*3,8*]trideca-3(8),4,6-trien-6-ol(cyclazocine)] | 10.00 |  |  |  |  |  | 
32 | c1ccc2c(c1)OCC(C1=NCCN1)O2 (configuration not stated) |  |  | < 5.00 | < 5.00 | 6.18 | < 5.00 | < 5.00
33 | CN1C2CCC1CC(OC(=O)c1cc(Cl)cc(Cl)c1)C2 (configuration not stated) [MDL 72222] |  |  | 5.54 | < 5.00 | < 5.00 | 7.85 | < 5.00
34 | CC(C)C[C@H](NC(=O)[C@H](Cc1ccccc1)NC(=O)CNC(=O)CNC(=O)[C@@H](N)Cc1ccc(O)cc1)C(=O)N[C@@H](CCCN=C(N)N)C(=O)N[C@@H](CCCN=C(N)N)C(=O)N[C@@H](CCC(N)=O)C(=O)N[C@@H](Cc1ccccc1)C(=O)N[C@@H](CCCCN)C(=O)N[C@H](C(=O)N[C@H](C(=O)N[C@H](C(=O)O)[C@@H](C)O)C(C)C)C(C)C [Dynorphin B (1-13)] |  | 8.26 |  |  |  |  | 
35 | CCC12CCN(CC3(O)CC3)C(Cc3ccc(O)cc31)C2(C)C (configuration not stated) |  | 10.00 |  |  |  |  | 
